Usually IC50 stands for the concentration that gives 50% inhibition. Low readings indicate inhibition by little substance, high ones a need for much substance. One may read the MIC as the smallest concentration in the dilution series that meets the test's criterion for growth inhibition.

The source of these data is publication PMC9290507, “Rh^II‐Catalyzed De‐symmetrization of Ethane‐1,2‐dithiol and Propane‐1,3‐dithiol Yields Metallo‐β‐lactamase Inhibitors” (Chemmedchem, 2021).

One experiment deals with T1, NDM‐1 (Klebsiella pneumoniae, UniProt C7C422).
T1 construct: made in house
T1 sequence (C7C422 29-270, looked up, species assumed): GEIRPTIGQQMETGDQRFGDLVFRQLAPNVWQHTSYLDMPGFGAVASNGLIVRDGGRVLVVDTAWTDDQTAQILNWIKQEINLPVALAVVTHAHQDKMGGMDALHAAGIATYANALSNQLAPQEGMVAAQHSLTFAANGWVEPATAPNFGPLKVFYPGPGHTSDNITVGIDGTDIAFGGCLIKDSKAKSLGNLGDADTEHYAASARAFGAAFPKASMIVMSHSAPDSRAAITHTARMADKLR
The experiment can be described thus: Fluorescence-based enzyme activity assay (Fluorocillin), NDM-1. The class given is biochemical. As to the method: (§1) In order to investigate the structure‐activity relationships of the dithiol library, we measured the inhibitory activity of 3 a–x in a fluorescence‐based enzyme activity assay (Table 1). Two relevant β‐lactamase isoforms, NDM‐1 and VIM‐1 were selected for in vitro assays. The fluorogenic substrate fluorocillin[15] was prepared according to literature and its conversion was monitored as described previously.[6] In general, a linear relationship between the potency of 3 a–x towards both enzymes could be observed, however, inhibitory potency towards VIM‐1 was almost tenfold higher (Figure 3). A very clear preference for the propane‐1,3‐dithiol over ethane‐1,2‐dithiol compounds could be observed from matched molecular pairs.
(§2) Activity assays for MBLs were performed at room temperature in black polystyrol 96well plates (Corning, Corning, NY, USA) using dicefalotinodifluorofluorescein (Fluorocillin) as a substrate. Proteins were diluted in assay buffer (HEPES 50 mM, pH 7.5 containing 0.01 %Triton X‐100), with final protein concentrations of NDM‐1: 3 nM, or VIM‐1: 4 nM. Samples were supplemented with an equimolar amount of ZnCl2. An amount of 1 μL of compounds 3 a–3 x at different concentrations was incubated with 89 μL of enzyme in assay buffer. After an incubation period of 30 min at room temperature, 10 μL of Fluorocillin substrate was added to yield the final assay volume of 100 μL. Final concentration of DMSO was 1 %. The fluorescence emitted by the fluorescent product difluorofluorescein was monitored every 45 s for 30 cycles using a Tecan fluorescent plate reader (Infinite 200; excitation at 495 nm and emission at 525 nm) and was compared with a standard curve. The rate of the enzymatic reaction was obtained by dividing the quantity of the fluorescent product (RFU) by time (min). Negative controls were measured in the absence of enzyme, whereas the positive controls were measured in the presence of enzyme and in the absence of inhibitors. The inhibitory effect of each substance was measured in triplicate in three independent experiments. IC50 values were calculated using data obtained from measurements with at least eight different inhibitor concentrations, applying a sigmoidal dose–response (variable slope with four parameters) equation using GraphPad Prism 5 (GraphPad Software, La Jolla, CA, USA) software. In order to investigate the inhibitory activity of 3 a, 3 o, or 3 s in the presence of a high Zn^2+ concentration, assay buffer containing an additional 100 μM ZnCl2 was used. The assay was performed as described above with NDM‐1 or VIM‐1 and 10 μM of 3 a, 3 o, or 3 s.

A further experiment deals with T2, VIM‐1 (Pseudomonas aeruginosa, UniProt A0A0F7KYQ8).
T2 construct: made in house
The experiment can be described thus: Fluorescence-based enzyme activity assay (Fluorocillin), VIM-1. The class given is biochemical. As to the method:
as §1, §2

The subject of another experiment is E. coli VIM‐1 (T2544). The experiment can be described thus: Checkerboard synergy assay with imipenem, E. coli VIM-1. It counts as cell-based. Conditions: Escherichia coli, read-out: Imipenem MIC. As to the method: (§3) To investigate this, the MIC of imipenem or combined with various concentrations of compound 3a, 3o, or 3 s was determined against E. coli transformants producing NDM‐1 or VIM‐1 (Table 3 and 4).
(§4) Minimal inhibitory concentrations (MICs) of imipenem monohydrate (Sigma‐Aldrich)±compound 3 a, 3 o, or 3 s against transformed E. coli strains producing NDM‐1 or VIM‐1 were determined according to microdilution method established by Clinical and Laboratory Standards Institute (CLSI).^20 The checkerboard assay was performed to test for synergy in vitro. The microtiter‐plates were set up with serial doubling dilutions of compound 3 a, 3 o, or 3 s (2‐128 mg/L) and imipenem (0.125‐128 mg/L).

The subject of the next experiment is E. coli NDM‐1 (T2359). The experiment can be described thus: Checkerboard synergy assay with imipenem, E. coli NDM-1. It counts as cell-based. The following applies: Escherichia coli, read-out: Imipenem MIC. The method, then:
as §3, §4

Structures are written as SMILES.

In the case of `CN(Cc1ccc(Cl)cc1)C(=O)CSCCS` [3 w, N‐(4‐Chlorobenzyl)‐2‐((2‐mercaptoethyl)thio)‐N‐methylacetamide], the IC50 was 580 ± 30 nM at NDM‐1 and 100 ± 10 nM against VIM‐1.

For `CN1CCC(SCCCS)C1=O` (centres unmarked) [3 m, 3‐((3‐Mercaptopropyl)thio)‐1‐methylpyrrolidin‐2‐one], the IC50 was 1580 ± 220 nM against NDM‐1 and 180 nM at VIM‐1.

For the compound `O=C(CSCCCS)N1CCN(Cc2ccc(Cl)cc2)CC1` [3 u, 1‐(4‐(4‐Chlorobenzyl)piperazin‐1‐yl)‐2‐((3‐mercaptopropyl)thio)ethan‐1‐one], the IC50 came to 3310 ± 120 nM on NDM‐1 and 300 ± 20 nM on VIM‐1.

With `CN(C(=O)CSCCS)[C@H]1CCCC[C@@H]1O` (relative stereo) [3 v, N‐((1S*,2S*)‐2‐Hydroxycyclohexyl)‐2‐((2‐mercaptoethyl)thio)‐N‐methylacetamide], the IC50 is 5500 ± 300 nM at NDM‐1 and 330 ± 20 nM at VIM‐1.

As for `CCOC(=O)C(SCCCS)c1ccc([N+](=O)[O-])cc1` (centres unmarked) [3 k, Ethyl 2‐((3‐mercaptopropyl)thio)‐2‐(4‐nitrophenyl)acetate], the values for the IC50 against NDM‐1 and against VIM‐1 were 7790 ± 1300 nM and 730 ± 50 nM, respectively.

`COC(=O)C(SCCS)c1ccc(Cl)cc1` (centres unmarked) [3 i, Methyl 2‐(4‐chlorophenyl)‐2‐((2‐mercaptoethyl)thio)acetate]: the values for the IC50 against NDM‐1 and on VIM‐1 were 880 ± 160 nM and 190 ± 10 nM, respectively.

`COc1ccc(C(=O)CSCCS)cc1` [3 f, 2‐((2‐Mercaptoethyl)thio)‐1‐(4‐methoxyphenyl)ethanone]: the IC50 against NDM‐1 was 1340 ± 320 nM; against VIM‐1, 180 ± 10 nM.

For `COc1ccc(C(=O)CSCCCS)cc1` [3 g, 2‐((3‐Mercaptopropyl)thio)‐1‐(4‐methoxyphenyl)ethanone], the IC50 on NDM‐1 amounted to 430 ± 20 nM; against VIM‐1 it was 140 nM.

In the case of `O=C1C(SCCCS)CCN1c1cccc(C(F)(F)F)c1` (centres unmarked) [3 q, 3‐((3‐Mercaptopropyl)thio)‐1‐(3‐(trifluoromethyl)phenyl)pyrrolidin‐2‐one], the IC50 at NDM‐1 is 480 ± 10 nM; against VIM‐1, 70 ± 10 nM.

As to `Cc1ccc(C(=O)CSCCS)cc1` [3 b, 2‐((2‐Mercaptoethyl)thio)‐1‐(p–tolyl)ethanone], the figures for the IC50 on NDM‐1 and on VIM‐1 were 3910 ± 420 nM and 220 ± 30 nM, respectively.

For the compound `C[C@@H](O)[C@H]1C(=O)N2C(C(=O)O)=C(SCCN=CN)C[C@H]12` [Imipenem, imipenem, reference compound], the MIC in the experiment on E. coli VIM‐1 (T2544) was 32 µg/mL; with E. coli NDM‐1 (T2359) it was 128 µg/mL.

On to `O=C(CSCCS)c1ccc(Cl)cc1` [3 d, 1‐(4‐Chlorophenyl)‐2‐((2‐mercaptoethyl)thio)ethanone], for which the IC50 was 5630 ± 1190 nM at NDM‐1 and 230 ± 10 nM on VIM‐1.

Take `CCOC(=O)C(SCCS)c1ccc([N+](=O)[O-])cc1` (centres unmarked) [3 j, Ethyl 2‐((2‐mercaptoethyl)thio)‐2‐(4‐nitrophenyl)acetate]: the figures for the IC50 at NDM‐1 and against VIM‐1 were 1550 ± 420 nM and 900 ± 60 nM, respectively.

Regarding `N#Cc1ccc(N2CCC(SCCS)C2=O)cc1` (centres unmarked) [3 t, 4‐(3‐((2‐Mercaptoethyl)thio)‐2‐oxopyrrolidin‐1‐yl)benzonitrile], the IC50 on NDM‐1 is 1190 ± 120 nM; at VIM‐1, 100 ± 20 nM.

With `O=C(CSCCCS)c1ccc(F)cc1` [3 e, 1‐(4‐Fluorophenyl)‐2‐((3‐mercaptopropyl)thio)ethanone], the IC50 worked out at 600 ± 30 nM against NDM‐1 and 230 ± 50 nM on VIM‐1.

`Cc1ccc(S(=O)(=O)N2CCN(C(=O)CSCCS)CC2)cc1` [3 x, 2‐((2‐Mercaptoethyl)thio)‐1‐(4‐tosylpiperazin‐1‐yl)ethanone]: the IC50 against NDM‐1 amounted to 2400 ± 130 nM; against VIM‐1 it was 400 ± 30 nM.

In the case of `O=C1OCCC1SCCS` (centres unmarked) [3 h, 3‐((2‐Mercaptoethyl)thio)dihydrofuran‐2(3H)‐one], the results for the IC50 against NDM‐1 and at VIM‐1 were 3630 ± 470 nM and 460 ± 30 nM, respectively.

With `O=C1C(SCCS)CCN1c1nccs1` (centres unmarked) [3 r, 3‐((2‐Mercaptoethyl)thio)‐1‐(thiazol‐2‐yl)pyrrolidin‐2‐one], the results for the IC50 at NDM‐1 and against VIM‐1 were 1540 ± 30 nM and 40 ± 20 nM, respectively.

As to `O=C1C(SCCS)CCN1c1ccccc1` (centres unmarked) [3 n, 3‐((2‐Mercaptoethyl)thio)‐1‐phenylpyrrolidin‐2‐one], the IC50 on NDM‐1 came out at 1410 ± 70 nM; against VIM‐1, 80 nM.

`COC(=O)CC(SCCCS)C(=O)OC` (centres unmarked) [3 l, Dimethyl 2‐((3‐mercaptopropyl)thio)succinate]: the IC50 at NDM‐1 was 440 ± 110 nM; at VIM‐1, 40 ± 10 nM.

With `Cc1ccc(C(=O)CSCCCS)cc1` [3 c, 2‐((3‐Mercaptopropyl)thio)‐1‐(p–tolyl)ethanone], the values for the IC50 at NDM‐1 and against VIM‐1 were 250 ± 60 nM and 70 ± 10 nM, respectively.

With `O=C1C(SCCS)CCN1c1cccc(C(F)(F)F)c1` (centres unmarked) [3 p, 3‐((2‐Mercaptoethyl)thio)‐1‐(3‐(trifluoromethyl)phenyl)pyrrolidin‐2‐one], the IC50 against NDM‐1 turned out to be 2080 ± 110 nM; against VIM‐1, 220 ± 10 nM.
